Results taken from US9763445B2, “Safened herbicidal compositions comprising a pyridine carboxylic acid herbicide” (Dow AgroSciences, LLC, priority 2014, dated 2017).

Key:
corn/maize (ZEAMX) = experiment: Postemergence greenhouse trial, % visual injury on corn/maize; format: in vivo, Zea mays; conditions: for % visual injury, Ob: alone, 35 g/ha; for % visual injury, observed (Ob): ZEAMX
Procedure: (§1) Seeds of the desired test plant species were planted in Sun Gro MetroMix® 306 planting mixture, which typically has a pH of 6.0 to 6.8 and an organic matter content of about 30 percent, in plastic pots with a surface area of 103.2 square centimeters (cm^2). When required to ensure good germination and healthy plants, a fungicide treatment and/or other chemical or physical treatment was applied. The plants were grown for 7-36 days (d) in a greenhouse with an approximate 14-hour (h) photoperiod which was maintained at about 23° C. during the day and 22° C. during the night. Nutrients and water were added on a regular basis and supplemental lighting was provided with overhead metal halide 1000-Watt lamps as necessary. The plants were employed for testing when they reached the second or third true leaf stage.
(§2) Weighed amounts of technical material were dissolved in a volume of 97:3 volume per volume (v/v) acetone/dimethyl sulfoxide (DMSO) to stock solutions. […] The concentrated stock solutions were diluted with an aqueous mixture of 1.5% v/v of Agri-dex crop oil concentrate to provide the appropriate application rates. Compound requirements are based upon a 12 milliliter (mL) application volume at a rate of 187 liters per hectare (L/ha). Stocks solutions of the safeners were prepared following the same procedure. Spray solutions of the safeners and experimental compound mixtures were prepared by adding the stock solutions to the appropriate amount of dilution solution to form a 12 mL spray solution in two-way combinations. Formulated compounds were applied to the plant material with an overhead Mandel track sprayer equipped with 8002E nozzles calibrated to deliver 187 L/ha over an application area of 0.503 square meters (m^2) at a spray height of 18 inches (43 centimeters (cm)) above average plant canopy. Control plants were sprayed in the same manner with the solvent blank. All herbicide application (component a) rates are in g ae/ha and all safener (component b) rates are in g ai/ha.
(§3) The treated plants and control plants were placed in a greenhouse as described above and watered by sub-irrigation to prevent wash-off of the test compounds. After 20-22 d, the condition of the test plants as compared with that of the control plants was determined visually and scored on a scale of 0 to 100 percent where 0 corresponds to no injury and 100 corresponds to complete kill. The condition of the test plants was compared with that of the control plants as determined visually and scored on a scale of 0 to 100 percent, where 0 corresponds to no injury and 100 corresponds to complete kill. Colby's equation was used to determine the herbicidal effects expected from the mixtures.
(§4) The safener cloquintocet-mexyl was combined with compound 1, compound 2, compound 4, compound 5, and compound 6, and applied to corn/maize (ZEAMX) and spring wheat (TRZAS) and the phytotoxicity of the herbicidal compositions was measured. In addition, the efficacy of the herbicidal composition on velvetleaf (ABUTH, Abutilon theophrasti), pigweed (AMARE, Amaranthus retroflexus), winter rape (BRSNW, Brassica napus), lambsquarters (CHEAL, Chenopodium album), thistle (CIRAR, Cirsium arvense), nutsedge (CYPES, Cyperus esculentus), poinsettia (EPHHL, Euphorbia heterophylla), wild buckwheat (POLCO, Polygonum convolvulus), giant foxtail (SETFA, Setaria faberi), and chickweed (STEME, Stellaria media) was evaluated. […]

spring wheat (TRZAS) = experiment: Postemergence greenhouse trial, % visual injury on spring wheat; format: in vivo, Triticum aestivum; conditions: alone, 35 g/ha
Procedure: as §1, §2, §3
(§5) The safener cloquintocet-mexyl was combined with compound 1, compound 2, compound 4, compound 5, and compound 6, and applied to corn/maize (ZEAMX) and spring wheat (TRZAS) and the phytotoxicity of the herbicidal compositions was measured. In addition, the efficacy of the herbicidal composition on velvetleaf (ABUTH, Abutilon theophrasti), pigweed (AMARE, Amaranthus retroflexus), winter rape (BRSNW, Brassica napus), lambsquarters (CHEAL, Chenopodium album), thistle (CIRAR, Cirsium arvense), nutsedge (CYPES, Cyperus esculentus), poinsettia (EPHHL, Euphorbia heterophylla), wild buckwheat (POLCO, Polygonum convolvulus), giant foxtail (SETFA, Setaria faberi), and chickweed (STEME, Stellaria media) was evaluated.
(§6) The safener cloquintocet-mexyl was combined with compound 1, compound 2, compound 3, compound 7, compound 8, compound 9, compound 10, compound 11, compound 12, compound 13, compound 14, compound 15, compound 16, compound 17, compound 18, compound 19, and compound 20, and applied to spring wheat (TRZAS), winter wheat (TRZAW), and spring barley (HORVS) and the phytotoxicity of the herbicidal compositions was measured. […]

velvetleaf (ABUTH) = experiment: Postemergence greenhouse trial, % visual injury on velvetleaf; format: in vivo, Abutilon theophrasti; conditions: alone, 35 g/ha
Procedure: as §1, §2, §3, §5, §6

pigweed (AMARE) = experiment: Postemergence greenhouse trial, % visual injury on pigweed; format: in vivo, Amaranthus retroflexus; conditions: for pest or weed control at 35 g/ha: Amaranthus retroflexus, post-emergence, alone, read-out: % visual injury, Ob; for % visual injury, observed (Ob): AMARE
Procedure: as §1, §2, §3, §4
(§7) The safener cloquintocet-acid and a number of agriculturally acceptable esters and salts (-mexyl, -dimethylammonium salt and -triethylammonium salt) were combined in varying ratios with compound 1 and applied to spring wheat (TRZAS), winter wheat (TRZAW), and spring barley (HORVS), and the phytotoxicity of the herbicidal compositions was measured. […]

winter rape (BRSNW) = experiment: Postemergence greenhouse trial, % visual injury on winter rape; format: in vivo, Brassica napus; conditions: Brassica napus, post-emergence; alone, 35 g/ha; read-out: % visual injury, Ob
Procedure: as §1, §2, §3, §4

lambsquarters (CHEAL) = experiment: Postemergence greenhouse trial, % visual injury on lambsquarters; format: in vivo, Chenopodium album; conditions: Chenopodium album, post-emergence; alone, 35 g/ha; read-out: % visual injury, Ob
Procedure: as §1, §2, §3, §5, §6

thistle (CIRAR) = experiment: Postemergence greenhouse trial, % visual injury on thistle; format: in vivo, Cirsium arvense; conditions: Cirsium arvense, post-emergence; alone, 35 g/ha; read-out: % visual injury, Ob
Procedure: as §1, §2, §3, §4

nutsedge (CYPES) = experiment: Postemergence greenhouse trial, % visual injury on nutsedge; format: in vivo, Cyperus esculentus; conditions: for % visual injury, Ob: alone, 35 g/ha; for % visual injury, observed (Ob): CYPES
Procedure: as §1, §2, §3, §4, §7

wild buckwheat (POLCO) = experiment: Postemergence greenhouse trial, % visual injury on wild buckwheat; format: in vivo, Polygonum convolvulus; conditions: alone, 35 g/ha
Procedure: as §1, §2, §3, §5, §6

giant foxtail (SETFA) = experiment: Postemergence greenhouse trial, % visual injury on giant foxtail; format: in vivo, Setaria faberi; conditions: alone, 35 g/ha
Procedure: as §1
(§8) Weighed amounts of technical material were dissolved in a volume of 97:3 volume per volume (v/v) acetone/dimethyl sulfoxide (DMSO) to stock solutions. […] The concentrated stock solutions were diluted with an aqueous mixture of 1.5% v/v of Agri-dex crop oil concentrate to provide the appropriate application rates. Compound requirements are based upon a 12 milliliter (mL) application volume at a rate of 187 liters per hectare (L/ha). […]
as §3, with “Colby's equation was used to determine the herbicidal effects expected from the mixtures.” left out
The safener cloquintocet-mexyl was combined with compound 1, compound 2, compound 4, compound 5, and compound 6, and applied to corn/maize (ZEAMX) and spring wheat (TRZAS) and the phytotoxicity of the herbicidal compositions was measured. […]

common sorghum (SORVU) = experiment: Postemergence greenhouse trial, % visual injury on common sorghum; format: in vivo, Sorghum vulgare; conditions: for % visual injury, observed (Ob): SORVU
Procedure: as §1, §2
as §3, with “mixtures. […]” for “mixtures.”
(§9) The safener cloquintocet-acid and a number of agriculturally acceptable esters and salts (-mexyl, -dimethylammonium salt and -triethylammonium salt) were combined in varying ratios with compound 1 and applied to spring wheat (TRZAS), winter wheat (TRZAW), and spring barley (HORVS), and the phytotoxicity of the herbicidal compositions was measured. In addition, the efficacy of the herbicidal composition on pigweed (AMARE, Amaranthus retroflexus), nutsedge (CYPES, Cyperus esculentus), common sunflower (HELAN, Helianthus annuus), and common sorghum (SORVU, Sorghum vulgare).

chickweed (STEME) = experiment: Postemergence greenhouse trial, % visual injury on chickweed; format: in vivo, Stellaria media; conditions: alone, 35 g/ha
Procedure: as §1, §2, §3, §4

wild pansy (VIOTR) = experiment: Postemergence greenhouse trial, % visual injury on wild pansy; format: in vivo, Viola tricolor; conditions: alone, 35 g/ha
Procedure: as §1, §2
as §3, with “mixtures. […]” for “mixtures.”

winter wheat (TRZAW) = experiment: Postemergence greenhouse trial, % visual injury on winter wheat; format: in vivo, Triticum aestivum; conditions: TRZAW
Procedure: as §1, §2, §3, §6

common sunflower (HELAN) = experiment: Postemergence greenhouse trial, % visual injury on common sunflower; format: in vivo, Helianthus annuus
Procedure: as §1, §2, §3, §9

poinsettia (EPHHL) = experiment: Postemergence greenhouse trial, % visual injury on poinsettia; format: in vivo, Euphorbia heterophylla; conditions: alone, 35 g/ha
Procedure: as §1
as §8, with “(L/ha). Stocks solutions of the safeners were prepared following the same procedure.” for “(L/ha).”
as §3, with “Colby's equation was used to determine the herbicidal effects expected from the mixtures.” left out
as §4

COC(=O)c1nc(-c2ccc3ccn(C(C)=O)c3c2F)c(F)c(N)c1Cl [compound 3]
% visual injury, Ob (corn/maize (ZEAMX)): 0%
% visual injury, Ob (spring wheat (TRZAS)): 30%
% visual injury, Ob (velvetleaf (ABUTH)): 50%
pest or weed control at 35 g/ha (pigweed (AMARE)): 95%
plant injury at 35 g/ha (winter rape (BRSNW)): 30%
pest or weed control at 35 g/ha (lambsquarters (CHEAL)): 85%
pest or weed control at 35 g/ha (thistle (CIRAR)): 50%
% visual injury, Ob (nutsedge (CYPES)): 10%
% visual injury, Ob (wild buckwheat (POLCO)): 97%
% visual injury, Ob (giant foxtail (SETFA)): 60%
% visual injury, Ob (common sorghum (SORVU); alone, 35 g/ha): 10%
% visual injury, Ob (chickweed (STEME)): 70%
% visual injury, Ob (wild pansy (VIOTR)): 10%

O=C(O)COc1ccc(Cl)c2cccnc12 [CQC-acid]
% visual injury, observed (Ob) (corn/maize (ZEAMX); safener alone 2.5 g/ha): 0%
% visual injury, observed (Ob) (corn/maize (ZEAMX); safener alone 5 g/ha): 0%
% visual injury, observed (Ob) (corn/maize (ZEAMX); safener alone 10 g/ha): 0%
% visual injury, observed (Ob) (corn/maize (ZEAMX); safener alone 20 g/ha): 0%
% visual injury, observed (Ob) (winter wheat (TRZAW); safener alone 2.5 g/ha): 0%
% visual injury, observed (Ob) (winter wheat (TRZAW); safener alone 5 g/ha): 0%
% visual injury, observed (Ob) (winter wheat (TRZAW); safener alone 10 g/ha): 0%
% visual injury, observed (Ob) (winter wheat (TRZAW); safener alone 20 g/ha): 0%
% visual injury, observed (Ob) (pigweed (AMARE); safener alone 2.5 g/ha): 0%
% visual injury, observed (Ob) (pigweed (AMARE); safener alone 5 g/ha): 0%
% visual injury, observed (Ob) (pigweed (AMARE); safener alone 10 g/ha): 0%
% visual injury, observed (Ob) (pigweed (AMARE); safener alone 20 g/ha): 0%
% visual injury, observed (Ob) (nutsedge (CYPES); safener alone 2.5 g/ha): 0%
% visual injury, observed (Ob) (nutsedge (CYPES); safener alone 5 g/ha): 0%
% visual injury, observed (Ob) (nutsedge (CYPES); safener alone 10 g/ha): 0%
% visual injury, observed (Ob) (nutsedge (CYPES); safener alone 20 g/ha): 0%
% visual injury, observed (Ob) (common sunflower (HELAN); safener alone 2.5 g/ha): 0%
% visual injury, observed (Ob) (common sunflower (HELAN); safener alone 5 g/ha): 0%
% visual injury, observed (Ob) (common sunflower (HELAN); safener alone 10 g/ha): 0%
% visual injury, observed (Ob) (common sunflower (HELAN); safener alone 20 g/ha): 0%
% visual injury, observed (Ob) (common sorghum (SORVU); safener alone 2.5 g/ha): 0%
% visual injury, observed (Ob) (common sorghum (SORVU); safener alone 5 g/ha): 0%
% visual injury, observed (Ob) (common sorghum (SORVU); safener alone 10 g/ha): 0%
% visual injury, observed (Ob) (common sorghum (SORVU); safener alone 20 g/ha): 0%

COCC(=O)n1ccc2ccc(-c3nc(C(=O)OC)c(Cl)c(N)c3F)c(F)c21 [compound 6]
% visual injury, Ob (corn/maize (ZEAMX)): 25%
% visual injury, Ob (spring wheat (TRZAS)): 35%
% visual injury, Ob (velvetleaf (ABUTH)): 80%
pest or weed control at 35 g/ha (pigweed (AMARE)): 100%
plant injury at 35 g/ha (winter rape (BRSNW)): 75%
pest or weed control at 35 g/ha (lambsquarters (CHEAL)): 100%
pest or weed control at 35 g/ha (thistle (CIRAR)): 75%
% visual injury, Ob (nutsedge (CYPES)): 0%
% visual injury, Ob (poinsettia (EPHHL)): 100%
% visual injury, Ob (wild buckwheat (POLCO)): 97%
